# Reference: publication PMC8769378, “Underlining the Importance of Peripheral Protic Functional Groups to Enhance the Proton Exchange of Gd-Based MRI Contrast Agents” (Inorganic Chemistry, 2021)
# Key:
# [1] = Longitudinal relaxivity r1 and relaxivity vs pH profiles; assay type: physicochemical
# Description: The longitudinal relaxivity values (r1) for GdL1 and GdL2, at 20 MHz (0.47 T), 298 K, and pH 7.4, are 4.7 and 5.1 mM^–1 s^–1, respectively. These are typical values of the clinical MRI contrast agents, i.e., low-molecular-weight q = 1 Gd^III chelates that tumble rapidly in solution.[1],[2] In particular, these values compare well with the r1 reported for GdHPDO3A[24] and other HPDO3A-like complexes such as GdHPDO3MA[25] or the series of Gd-hydroxypropylamide-DO3A (HPADO3A, Scheme 1)[7] complexes measured at the same experimental conditions.
# At pH >3, the r1 values of GdL2 decrease with the increase of pH from 6.6 mM^–1 s^–1 to reach a plateau of 5.1 mM^–1 s^–1 around pH = 7.5. A further increase of the pH results in the slight increase of r1 reaching a maximum around pH = 9.5. Finally, at pH >9.5, another small decrease in r1 is observed. On the other hand, in the case of GdL1, the r1 values are independent from the pH in the range 4.0–7.5, whereas at pH >8.0, r1 increases up to 5.2 mM^–1 s^–1. The r1 values of GdL1 were measured in the pH range 4–10 in order to avoid the hydrolysis of the methyl ester. […] Then, the overall relaxivity, r1, is given by eq 1: [drawing 1] 1 where r1^is, r1^os, and r1^pr are the relaxivity components due to the inner and outersphere water molecules and the −OH group, respectively. r1^pr can be expressed as follows:[26]−[28] [drawing 2] 2
# Proton relaxation measurements (1/T1) and the resulting 1/T1 NMRD profiles were measured on a fast-field cycling (FFC) Stelar SmarTracer relaxometer over a continuum of magnetic field strengths from 0.000 24 to 0.25 T (corresponding to 0.01–10 MHz proton Larmor frequencies). The relaxometer operates under computer control with an absolute uncertainty in 1/T1 of ±1%. […] Furthermore, the real temperature inside the probe head was additionally monitored by a Fluke 52 k/j digital thermometer (Fluke, Zürich, Switzerland). The gadolinium concentration was determined by measuring the bulk magnetic susceptibility shifts of the t-BuOH ^1H NMR signal. Additional data in the 20–120 MHz frequency range were obtained with a high field relaxometer (Stelar) equipped with the HTS-110 3T metrology cryogen-free superconducting magnet. […] The pH-dependent relaxivity measurements of GdL1 and GdL2 complexes were carried out by direct titration of the samples (GdL2, 3.0 < pH < 12.5; GdL1, 4 < pH < 10). The pH was adjusted by the stepwise addition of concentrated NaOH or HCl solution. Calculations were performed with the computer program Micromath Scientist, version 2.0 (Salt Lake City, UT).
# [2] = Stability constants of Gd^III complexes (out-of-cell pH potentiometry); assay type: physicochemical
# Description: The stability and protonation constants of Ca^2+, Zn^2+, and Cu^2+ complexes formed with the L1 ligand were determined by pH potentiometric titration. The metal-to-ligand concentration ratio was 1:1 (the concentration of the ligand was generally 0.002 M). The protonation constants of the GdL1 and GdL2 complexes were determined using pH potentiometry by titrating the preprepared complexes from pH = 3.0 to pH = 12 for GdL2 and from pH = 4.0 to pH = 12 for GdL1 with 0.2 M NaOH. The stability constants of GdL2 were determined by the “out-of-cell” technique because of the slow formation reaction. The pH range of the complexation equilibria and the time needed to reach the equilibria were determined by relaxometry for the formation of GdL2. […] For the calculation of the stability constants of GdL2, besides the protonation constants of ligands, the stability constants of the diprotonated *Gd(H2L2) out-of-cage complexes (considered as intermediates) were also used as fixed values, which were calculated from the pH potentiometric titration curve of the Gd^3+–L2 system obtained in the pH range 1.7–4.0.
# For the pH measurements and titrations, the Metrohm 888 Titrando titration workstation Metrohm-6.0234.110 combined electrode was used. […] For the calculation of [H^+] from the measured pH values, the method proposed by Irving et al. was used as follows.[34] […]
"GdL (log KGdL, stability constant) ([2]; I = 0.15 M NaCl, 298 K)","GdH2L (log K, stability constant of the protonated *Gd(H2L) out-of-cage intermediate) ([2]; KGd(H2L)=[Gd(H2L)]/[Gd3+][H2L], 0.15 M NaCl, 25 °C)",Structure (SMILES),"longitudinal relaxivity r1 ([1]; 20 MHz (0.47 T), 298 K, pH 7.4)","r1 plateau ([1]; around pH = 7.5, 21 MHz, 298 K, 0.15 M NaCl)",relaxivity increase by acid-catalyzed proton exchange ([1]; pH <6),"r1 at the acidic start of the pH profile ([1]; pH about 3, 21 MHz, 298 K, 0.15 M NaCl)"
–,–,O=C([O-])CN1CCN(CC(=O)[O-])CCN(CC(O)C(=O)O)CCN(CC(=O)[O-])CC1.[Gd+3] (stereo not drawn) [GdL2],5.1 mM^–1 s^–1,5.1 mM^–1 s^–1,ca. 30%,6.6 mM^–1 s^–1
19.26 (3),6.73 (3),"O=C(O)CN1CCN(CC(=O)O)CCN(C[C@@H](O)C(=O)O)CCN(CC(=O)O)CC1 [L2, (R)2,2′,2″-(10-(2-Carboxy-2-hydroxyethyl)-1,4,7,10-tetraazacyclododecane-1,4,7-triyl) Triacetic Acid]",–,–,–,–
